PubChem BioAssay (NCI)
Values joined by “and” are separate entries in the source; they are usually repeats but may differ in a detail not shown here. Equal values may be shown once.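 Cells were grown in 96-well plates and exposed to each compound for 48 hours at five concentrations; endpoints were interpolated linearly between bracketing concentrations, or set to the highest concentration if not reached. The concentration for 50% growth inhibition is given as GI50. At the TGI there is no net growth.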

What was measured:
Experiment in all cases: growth of human tumour cells (NCI), 48 h
[1] = system: SK-MEL-2 melanoma
[2] = system: SR leukemia
[3] = system: HCC-2998 colon
[4] = system: COLO 205 colon
[5] = system: U251 CNS
[6] = system: SN12C renal
[7] = system: MCF7 breast
[8] = system: MDA-MB-231 breast
[9] = system: T-47D breast
[10] = system: HCT-15 colon

Structure (SMILES)	TGI [1] [µM]	TGI [2] [µM]	TGI [3]	TGI [4] [µM]	TGI [5]	TGI [6]	TGI [7]	TGI [8]	TGI [9] [µM]	TGI [10]	GI50 [1]	GI50 [4]	GI50 [7]	GI50 [8]
C[C@]12CCC(=O)O[C@H]1CCCCO2	> 100	> 100	> 100 µM	> 100	> 100 µM	> 100 µM	> 100 µM	> 100 µM	> 100	> 100 µM				
CCOC(=O)c1nc2ccc(C(F)(F)F)cc2nc1NCc1cc(OC)c(OC)c(OC)c1	> 100	48.5	> 100 µM	73.4		> 100 µM	> 100 µM	> 100 µM	> 100	> 100 µM				
Cc1ccc(SCC(CF)OC(C)n2cnc3c(=O)[nH]c(N)nc32)cc1 (configuration not stated)	> 100	> 100	> 100 µM	> 100	> 100 µM	> 100 µM	> 100 µM	> 100 µM	> 100	> 100 µM				
Cc1cc(S(=O)(=O)N=C2N(Cc3ccccc3)CCN2Cc2ccccc2)c(S)cc1Cl		> 100	> 100 µM	> 100	> 100 µM	> 100 µM	> 100 µM	> 100 µM	> 100	> 100 µM				
O=c1cc(-c2ccc(F)cc2)[nH]c2ncc(Cl)cc12	> 100	23.7	> 100 µM	> 100	> 83.4 µM	> 100 µM	> 100 µM	> 100 µM	> 100	> 100 µM				
O=C(O)Cc1cccc2c(=O)c3ccccc3oc12	56.5	> 100	46 µM	> 100	> 100 µM	> 100 µM	> 100 µM	> 100 µM	61.7	> 100 µM				
COc1ccc2ccccc2c1/C=C/C(=O)c1ccccc1	3.64	2.55	3.07 µM	9.76	4.98 µM	11 µM	18.6 µM	7.31 µM	8.32	> 35.8 µM				
C(=Nc1ccc(-c2nc3ccccc3[nH]2)cc1)c1cccs1	> 100	> 100		> 100	> 100 µM	> 100 µM	> 100 µM	> 100 µM	> 100	> 100 µM				
O=Cc1ccc2c(c1)CC1(Cc3ccccc3C1)C2	27.1	18.4	> 100 µM	54.2	36.2 µM	34.4 µM	66.4 µM	30.4 µM	> 100	73.4 µM				
CC1=NNC(N)=N/C1=C\C(Sc1ccc(Cl)cc1)c1ccc([N+](=O)[O-])cc1 (configuration not stated)	> 100	> 100	> 100 µM	> 100	> 100 µM	> 100 µM	> 100 µM	> 100 µM	> 100	> 100 µM				
COc1cc(/C=C2/C[C@H]3[C@@H]4CC=C5C[C@@H](O)CC[C@]5(C)[C@H]4CC[C@]3(C)NC2=O)cc(OC)c1OC	> 62.9	> 100	25.8 µM	> 57.9	> 60.1 µM	> 64.2 µM	> 77.5 µM	> 55.7 µM	> 100	> 59.5 µM				
NN/C(=N\S(=O)(=O)c1cc2ccccc2s1)Nc1ccc(Cl)cc1	34.5	73.9		33	34.5 µM	39 µM	42.4 µM	40.4 µM	37.8	> 100 µM				
CC(C)[Si](OC1=C(C(=O)N(C)c2cccc(Cl)c2)CCCC1)(C(C)C)C(C)C	33.2	42.5	34 µM	35	32.9 µM		29.2 µM	34.6 µM	18.1	28.4 µM				
CCOC(=O)N/N=C(/N)c1cccc([N+](=O)[O-])c1	> 100	> 100	> 100 µM	> 100	> 100 µM	> 100 µM	> 100 µM	> 100 µM	> 100	> 100 µM				
O=C1/C(=N/O)Cc2c(Br)ccc(Br)c21	48.4	74.4	> 100 µM		> 100 µM		> 100 µM	> 100 µM	> 100	> 100 µM				
O=C1/C(=C/c2ccc([N+](=O)[O-])cc2)C(=O)N(c2ccccc2)C1c1ccccc1 (configuration not stated)	> 10	> 10	> 10 µM	> 10	> 10 µM	> 10 µM	> 10 µM	> 10 µM	> 10	> 10 µM				
O=C1CSC(c2cccc(Oc3ccccc3)c2)N1c1ccc(Cl)cc1 (configuration not stated)	40.2	46.9		35.5	> 100 µM	> 100 µM	38.5 µM	> 100 µM	91.9	> 100 µM				
Cc1ccc(N=Nc2c(O)ccc3cc(S(=O)(=O)O)cc(S(=O)(=O)O)c23)cc1	> 100	> 100	> 100 µM	> 100	> 100 µM	> 100 µM	> 100 µM	> 100 µM	> 100	> 100 µM				
CCOP(C)(=O)C(N)Cc1ccc(OC)c(OC)c1 (configuration not stated)		> 100	> 100 µM	> 100	> 100 µM	> 100 µM	> 100 µM	> 100 µM	> 100	> 100 µM				
CC(=O)OCC12C(=O)C[C@@H](C)C3(CC(c4ccoc4)OC3=O)C1CCC(OC(C)=O)C21CO1 (some centres not stated)	> 100	> 100	> 100 µM	> 100	> 100 µM	> 100 µM	> 100 µM	> 100 µM	> 100	> 100 µM				
CCOC(=O)CNc1c(OCc2ccccc2)c(=O)c1=O	> 100	> 100	> 100 µM	> 100	> 100 µM	> 100 µM	> 100 µM	> 100 µM	> 100	> 100 µM				
CSc1ccc2c(cc1=O)[C@@H](NC(=O)c1ccc(N)cc1)CCc1cc(O)c(O)c(O)c1-2	> 100	> 100	32.9 µM and 37.3 µM	> 100	57.3 µM and > 100 µM	> 75 µM and 90.1 µM	21.7 µM and > 100 µM	> 75 µM and 79.6 µM	> 100	26 µM and 42.4 µM	30.9 µM and 11.4 µM	31.7 µM and 4.04 µM	9.14 µM and 3.83 µM	47.2 µM and 19.9 µM

Structure (SMILES)	TGI [1] [µM]	TGI [2] [µM]	TGI [3]	TGI [4] [µM]	TGI [5]	TGI [6]	TGI [7]	TGI [8]	TGI [9] [µM]	TGI [10]	GI50 [1]	GI50 [4]	GI50 [7]	GI50 [8]
Oc1c(CN2CCOCC2)ccc2cccnc12	> 10		> 10 µM	> 10	> 10 µM	> 10 µM	> 10 µM	> 10 µM	> 10	> 10 µM				
Cc1ccc2c(c1)C(C(=O)N[C@@H]1C(=O)N3[C@@H]1SC(C)(C)[C@@H]3C(=O)O)OCCC2 (some centres not stated)	> 100	> 100	> 100 µM	> 100	> 100 µM	> 100 µM	> 100 µM	> 100 µM	> 100	> 100 µM				
CON(C)C(=O)CNC(=O)OCC1c2ccccc2-c2ccccc21	> 100	69.6	> 100 µM	> 100	> 100 µM	> 100 µM	> 100 µM	> 100 µM	> 100	> 100 µM				
Oc1ccc(-c2nc(-c3cccnc3)c(-c3ccc(Cl)cc3)[nH]2)cc1	32.8	44.1	33.1 µM	23.9	28.5 µM	32.6 µM	24.7 µM	35.1 µM	28.6	25.2 µM				
COC(CNC(=O)C(C)NC(=O)CCc1ccccc1)OC (configuration not stated)	> 100	> 100		> 100	> 100 µM	> 100 µM	> 100 µM	> 100 µM	> 100	> 100 µM				
COC1=C(OC)C(=O)C(Cc2c(C)nc3sc(C)cn23)=C(C)C1=O	34.7	43.1	92.9 µM	36	39.7 µM	31 µM	59.9 µM	30.2 µM	> 100	96.4 µM				
Cc1nc(-c2cc3cc([N+](=O)[O-])ccc3oc2=O)cs1	> 100	> 100	> 100 µM	> 100	> 100 µM	> 100 µM	> 100 µM	> 100 µM	> 100	> 100 µM				
COc1cc(CNCc2cc(OC)c(OC)c(OC)c2)cc(OC)c1OC	> 10	> 9.12	> 10 µM	> 10	> 10 µM	> 10 µM	> 10 µM	> 10 µM	> 10	> 10 µM				
O=Cc1ccc(OCc2cccc(COc3ccc(/C=N\Nc4ccc([N+](=O)[O-])cc4[N+](=O)[O-])cc3)n2)cc1	> 100	75.3	> 100 µM	> 100	> 100 µM	> 100 µM	> 100 µM	> 100 µM	> 100	> 100 µM				
CC(C)(C)OC(=O)NC(Cc1ccc(OCc2ccccc2)cn1)C(=O)N1CCCCC1 (configuration not stated)	58.2	93	> 100 µM	33.3	> 100 µM	> 100 µM	> 100 µM	> 100 µM	33.9	> 100 µM				
O=C1C(CN2CCCCC2)CCC1CN1CCCCC1 (configuration not stated)	52.6	3.75	> 62.5 µM	40.7	> 73.2 µM	45.5 µM	43 µM	42.3 µM	36.5	47.4 µM				
O=C(NNC(=S)Nc1cccc(Cl)c1)c1cc(-c2ccccc2)nc2ccccc12	27.7	49.9	28.2 µM	29.2	30.4 µM	37.1 µM	23 µM	33.2 µM	36.4	29.6 µM				
O=C1CC(=Nc2ccc(Cl)cc2)C(c2ccccc2)N1c1ccccc1 (configuration not stated)	7.92	45.5	> 100 µM	16.4	> 100 µM	> 100 µM	> 100 µM	85.2 µM	6.27	> 100 µM				
Cc1c(S(=O)(=O)/N=C(\NO)Nc2ccc(Cl)c(Cl)c2)sc2ccc(Cl)cc12	38.6		44.6 µM	35.7	49.9 µM	35.8 µM	86.8 µM	55.3 µM	36.7	35.7 µM				
CC(C)=CCC/C(C)=C/C=C/C(C)=C/C=C/C(C)=C/C=C/C=C(C)/C=C/C=C(C)/C=C/[C@H]1C(C(C)(C)O)CC[C@]1(C)O (some centres not stated)	> 100	54.4	30 µM		47.4 µM		35.5 µM	66.9 µM	> 100	51.8 µM				
COCN(CCC1=CCCCC1)C(=O)OC	> 100	> 100	> 100 µM	> 100	> 100 µM		> 100 µM	> 100 µM	> 100	> 100 µM				
CCOc1cn(C2CC(O)C(CO)O2)c(=O)[nH]c1=O (configuration not stated)	> 100		> 100 µM	> 100	> 100 µM	> 100 µM	> 100 µM	> 100 µM	> 100	> 100 µM				
O=C(NI1OC(=O)c2ccccc21)c1ccc(Cl)cc1	> 100		> 100 µM	> 100	> 100 µM	> 100 µM	> 100 µM	> 100 µM	> 100	> 100 µM				
O=C1C=CC[C@H]2O[C@@H](COC(=O)Cc3ccccc3)C[C@H]2O1	> 100	> 100		> 100		> 100 µM	> 100 µM	> 100 µM	> 100	45.7 µM				
Cc1ccc([N+](=O)[O-])cc1S(=O)(=O)Nc1ccc(C2=NNC(c3ccccc3)C2)cc1 (configuration not stated)	45.4	48.7	44.9 µM	41.4		59.2 µM	43.7 µM	77.5 µM	28.5	62.1 µM				
CCOCc1nc2c(OC)cc(-c3nc4ccc(N5CCN(C)CC5)cc4[nH]3)c(OC)c2[nH]1	40.6	59.7		38	> 100 µM	> 100 µM	> 100 µM	81.9 µM	> 100	> 100 µM				
OCC(O)COCn1nncc1Cn1ncc2c(SCc3ccccc3)ncnc21 (configuration not stated)	> 100		> 100 µM	> 100	> 100 µM	> 100 µM	> 100 µM	> 100 µM	> 100	> 100 µM				
